The numbers were not newly measured in US20050143344A1, “Methods and compositions using immunomodulatory compounds for the treatment and management of central nervous system disorders or diseases” (priority 2003, published 2005), which cites them from elsewhere.

The conditions of series [1]: for conversion in acetone and other anhydrous systems: acetone / anhydrous solvent systems.
The subject of another series is nigrostriatal neurons. To be noted: lentiviral vector delivery.

`Nc1cccc2c1CN(C1CCC(=O)NC1=O)C2=O` (stereo not drawn) [Form B, 3-(4-amino-1-oxo-1,3 dihydro-isoindol-2-yl)-piperidene-2,6-dione]: the conversion upon heating entry in series [1] (175° C. for about five minutes) is given as “can convert to Form F”. In addition, in series [1], the “conversion in acetone and other anhydrous systems” value is recorded as “converts to other forms”. Also, in series [1] (aqueous solvent systems), the “stability / conversion in aqueous solvent systems” value is reported as “converts to Form E”.
Turning to `Nc1cccc2c1CN(C1CCC(=O)NC1=O)C2=O` (stereo not drawn) [Form C, 3-(4-amino-1-oxo-1,3 dihydro-isoindol-2-yl)-piperidene-2,6-dione], the “conversion at higher relative humidities” value in series [1] was “can convert to Form B”.
As to `Nc1cccc2c1CN(C1CCC(=O)NC1=O)C2=O` (stereo not drawn) [Form D, 3-(4-amino-1-oxo-1,3 dihydro-isoindol-2-yl)-piperidene-2,6-dione], in series [1], the “conversion at higher relative humidities” value is “will typically convert to Form B”.
Take `Nc1cccc2c1CN(C1CCC(=O)NC1=O)C2=O` (stereo not drawn) [Form E, 3-(4-amino-1-oxo-1,3 dihydro-isoindol-2-yl)-piperidene-2,6-dione]: in series [1] (THF solvent system), the “conversion in THF solvent system” value is “to Form G”. Besides, the “conversion upon heating (desolvation)” value in series [1] (about 125° C. for about five minutes) was “can convert to Form B”. In series [1], the “conversion in acetone and other anhydrous systems” value is listed as “can convert to Form C”.

B1: GDNF: glial cell line derived neurotrophic factor, delivered by lentiviral vectors to striatum and SN of rhesus monkeys (protein, UniProt P39905 78-211, looked up)
Glial cell line-derived …: SPDKQMAVLPRRERNRQAAAANPENSRGKGRRGQRGKNRGCVLTAIHLNVTDLGLGYETKEELIFRYCSGSCDAAETTYDKILKNLSRNRRLVSDKVGQACCRPIAFDDDLSFLDDNLVYHILRKHSAKRCGCI
modifications: lentiviral vector delivery
notes: glial cell line derived neurotrophic factor, delivered by lentiviral vectors to striatum and SN of rhesus monkeys
Turning to B1, the motor deficits result in the series on nigrostriatal neurons (MPTP treated monkeys) was “reversed”. For the same molecule, the dopaminergic function entry in the series on nigrostriatal neurons (aged monkeys) is “augmented”. In the series with nigrostriatal neurons (monkeys treated with MPTP), the functional deficits result was “reversed” and the nigrostriatal degeneration result is recorded as “prevented”.
